Assay results published in the NIST ThermoML archive (doi:10.1021/je060382+).
Several values for one entry are separate records, joined by “and”; a condition that tells them apart may be missing. Identical values can stand only once. Numbers after ± are expanded uncertainties.

Legend:
[1] = Liquid; for viscosity: Falling or rolling sphere viscometry
[2] = refractive index (Na D-line) (dimensionless); settings: 293.1 K; 101.33 kPa; Liquid; Standard Abbe refractometry

CC(C)CCCCCCCOC(=O)c1ccccc1C(=O)OCCCCCCCC(C)C
[1]
Settings	mass density	viscosity
273.15 K, 101.33 kPa	980.73 ± 0.45 kg/m3 and 980.75 ± 0.11 kg/m3	627.6 ± 56 mPa·s and 664.5 ± 60 mPa·s
278.15 K, 101.33 kPa	977.12 ± 0.12 kg/m3	393.5 ± 30 mPa·s and 410.8 ± 32 mPa·s and 410.5 ± 32 mPa·s
283.15 K, 101.33 kPa	973.48 ± 0.46 kg/m3 and 973.49 ± 0.12 kg/m3	255.2 ± 17 mPa·s and 266.8 ± 18 mPa·s
288.15 K, 101.33 kPa	969.89 ± 0.12 kg/m3	170.9 ± 9.8 mPa·s and 178.6 ± 10 mPa·s
293.15 K, 101.33 kPa	966.37 ± 0.47 kg/m3 and 966.38 ± 0.13 kg/m3 and 966.37 ± 0.13 kg/m3	123.5 ± 6.3 mPa·s [middle of 5 runs]
293.15 K, 19400 kPa	–	202.4 ± 12 mPa·s
293.15 K, 39700 kPa	–	335 ± 25 mPa·s
293.15 K, 59500 kPa	–	534.5 ± 45 mPa·s
293.15 K, 103600 kPa	–	1435.6 ± 160 mPa·s
293.15 K, 118200 kPa	–	1981.5 ± 250 mPa·s
293.15 K, 118900 kPa	–	2033.8 ± 260 mPa·s
293.15 K, 159600 kPa	–	4719.2 ± 720 mPa·s
298.15 K, 101.33 kPa	962.83 ± 0.47 kg/m3 and 962.84 ± 0.13 kg/m3	87.7 ± 4 mPa·s and 84.1 ± 3.8 mPa·s and 88.4 ± 4 mPa·s
298.15 K, 25400 kPa	–	165.5 ± 9.3 mPa·s
298.15 K, 50700 kPa	–	300.2 ± 21 mPa·s
298.15 K, 75500 kPa	–	525 ± 44 mPa·s
298.15 K, 100600 kPa	–	904.7 ± 89 mPa·s
303.15 K, 101.33 kPa	959.31 ± 0.48 kg/m3 and 959.29 ± 0.48 kg/m3 and 959.3 ± 0.14 kg/m3	65 ± 2.8 mPa·s [middle of 4 runs]
308.15 K, 101.33 kPa	–	48.9 ± 2.1 mPa·s [middle of 4 runs]
313.15 K, 100 kPa	–	37.6 ± 3.7 mPa·s and 36.8 ± 3.8 mPa·s
313.15 K, 101.33 kPa	952.2 ± 0.49 kg/m3 and 952.21 ± 0.14 kg/m3	37.5 ± 1.6 mPa·s [middle of 4 runs]
313.15 K, 700 kPa	–	38.3 ± 1.8 mPa·s
313.15 K, 25000 kPa	–	65.4 ± 6.3 mPa·s and 63.9 ± 5.3 mPa·s
313.15 K, 25800 kPa	–	66 ± 2.9 mPa·s
313.15 K, 50000 kPa	–	109.4 ± 12 mPa·s and 107 ± 12 mPa·s
313.15 K, 50600 kPa	–	110.3 ± 5.4 mPa·s
313.15 K, 75500 kPa	–	181 ± 10 mPa·s
313.15 K, 100000 kPa	–	290 ± 47 mPa·s and 271 ± 44 mPa·s and 273 ± 44 mPa·s
313.15 K, 100300 kPa	–	291.6 ± 20 mPa·s
313.15 K, 125100 kPa	–	463.2 ± 37 mPa·s
313.15 K, 150400 kPa	–	732.6 ± 70 mPa·s
313.15 K, 175800 kPa	–	1143.6 ± 120 mPa·s
313.15 K, 197600 kPa	–	1680 ± 200 mPa·s
313.15 K, 200000 kPa	–	1580 ± 250 mPa·s and 1665 ± 260 mPa·s and 1530 ± 300 mPa·s
313.15 K, 227900 kPa	–	2671.7 ± 360 mPa·s
313.15 K, 252000 kPa	–	3750 ± 770 mPa·s and 3932.3 ± 580 mPa·s
313.15 K, 300000 kPa	–	8110 ± 1700 mPa·s and 7270 ± 1600 mPa·s
313.15 K, 400000 kPa	–	36300 ± 9800 mPa·s and 33700 ± 9100 mPa·s
313.15 K, 500000 kPa	–	168000 ± 53000 mPa·s and 158000 ± 49000 mPa·s
313.15 K, 600000 kPa	–	782000 ± 280000 mPa·s and 694000 ± 250000 mPa·s
313.15 K, 700000 kPa	–	3820000 ± 1.6e+06 mPa·s and 3410000 ± 1.4e+06 mPa·s
313.15 K, 800000 kPa	–	2.36e+07 ± 1.1e+07 mPa·s and 1.98e+07 ± 8.7e+06 mPa·s
323.15 K, 101.33 kPa	945.12 ± 0.5 kg/m3 and 945.13 ± 0.15 kg/m3	23 ± 1 mPa·s and 23.7 ± 1 mPa·s
333.15 K, 101.33 kPa	938.05 ± 0.51 kg/m3 and 938.07 ± 0.16 kg/m3	15.9 ± 0.7 mPa·s [middle of 4 runs]
338.15 K, 100 kPa	–	13.2 ± 1.3 mPa·s and 13.08 ± 1.4 mPa·s
338.15 K, 101.33 kPa	–	13.3 ± 0.6 mPa·s and 13.2 ± 0.5 mPa·s and 13 ± 0.5 mPa·s
338.15 K, 500 kPa	–	13.3 ± 0.6 mPa·s
338.15 K, 25000 kPa	–	20.2 ± 2.3 mPa·s
338.15 K, 30500 kPa	–	22.7 ± 1 mPa·s
338.15 K, 50000 kPa	–	30.7 ± 3.8 mPa·s and 31.1 ± 3.8 mPa·s
338.15 K, 60700 kPa	–	37.8 ± 1.6 mPa·s
338.15 K, 90600 kPa	–	60.9 ± 2.9 mPa·s
338.15 K, 99500 kPa	–	70.9 ± 3.4 mPa·s
338.15 K, 100000 kPa	–	67.7 ± 10 mPa·s and 69.4 ± 9.8 mPa·s
338.15 K, 120500 kPa	–	96.3 ± 5 mPa·s
338.15 K, 150100 kPa	–	149.6 ± 8.8 mPa·s
338.15 K, 180400 kPa	–	229.2 ± 16 mPa·s
338.15 K, 200000 kPa	–	291 ± 56 mPa·s and 286 ± 53 mPa·s and 299 ± 54 mPa·s
338.15 K, 200600 kPa	–	307.8 ± 23 mPa·s
338.15 K, 250700 kPa	–	614.9 ± 58 mPa·s
338.15 K, 275600 kPa	–	856.5 ± 85 mPa·s
338.15 K, 300000 kPa	–	1131 ± 260 mPa·s [middle of 4 runs]
338.15 K, 301000 kPa	–	1203.7 ± 130 mPa·s
338.15 K, 321800 kPa	–	1571 ± 180 mPa·s
338.15 K, 352700 kPa	–	2381 ± 310 mPa·s
338.15 K, 370500 kPa	–	2998.7 ± 410 mPa·s
338.15 K, 394000 kPa	–	3890 mPa·s
338.15 K, 394400 kPa	–	4005.5 ± 590 mPa·s
338.15 K, 500000 kPa	–	14200 ± 5700 mPa·s and 13100 ± 5400 mPa·s
338.15 K, 1000000 kPa	–	7420000 ± 3e+06 mPa·s and 6141000 ± 2.5e+06 mPa·s
343.15 K, 101.33 kPa	930.99 ± 0.53 kg/m3 and 931.01 ± 0.16 kg/m3	11.2 ± 0.5 mPa·s [middle of 4 runs]
348.15 K, 101.33 kPa	–	9.63 ± 0.4 mPa·s and 9.65 ± 0.4 mPa·s
348.15 K, 11100 kPa	–	11.7 ± 0.5 mPa·s
348.15 K, 26500 kPa	–	15.1 ± 0.6 mPa·s
348.15 K, 52600 kPa	–	22.9 ± 1 mPa·s
348.15 K, 78900 kPa	–	33.7 ± 1.4 mPa·s
348.15 K, 81000 kPa	–	35 ± 1.5 mPa·s
348.15 K, 105700 kPa	–	49.67 ± 2.1 mPa·s
348.15 K, 124200 kPa	–	65.18 ± 2.8 mPa·s
348.15 K, 125700 kPa	–	66 ± 2.8 mPa·s
348.15 K, 149800 kPa	–	92 ± 4.2 mPa·s
348.15 K, 175700 kPa	–	130.3 ± 6.7 mPa·s
348.15 K, 202300 kPa	–	186.52 ± 11 mPa·s
348.15 K, 225400 kPa	–	250 ± 16 mPa·s
348.15 K, 274700 kPa	–	467.3 ± 38 mPa·s
348.15 K, 275700 kPa	–	472.3 ± 38 mPa·s
348.15 K, 324900 kPa	–	866.8 ± 85 mPa·s
348.15 K, 372500 kPa	–	1541.5 ± 180 mPa·s
353.15 K, 101.33 kPa	923.95 ± 0.54 kg/m3 and 923.98 ± 0.17 kg/m3 and 923.97 ± 0.17 kg/m3	8.12 ± 0.34 mPa·s and 8.35 ± 0.34 mPa·s
363.15 K, 101.33 kPa	916.91 ± 0.55 kg/m3 and 916.94 ± 0.18 kg/m3	–
373.15 K, 100 kPa	–	4.67 ± 0.59 mPa·s and 4.7 ± 0.59 mPa·s
373.15 K, 25000 kPa	–	6.73 ± 0.88 mPa·s and 6.86 ± 0.69 mPa·s
373.15 K, 50000 kPa	–	9.66 ± 1.3 mPa·s and 9.77 ± 1.4 mPa·s
373.15 K, 100000 kPa	–	18 ± 2.9 mPa·s and 18.5 ± 3 mPa·s
373.15 K, 200000 kPa	–	56.6 ± 13 mPa·s and 57.8 ± 12 mPa·s
373.15 K, 300000 kPa	–	163 ± 52 mPa·s and 166 ± 50 mPa·s and 165 ± 50 mPa·s
373.15 K, 400000 kPa	–	453 ± 200 mPa·s [middle of 4 runs]

Settings	mass density [kg/m3]
[1], 293.1 K, 101.33 kPa, Vibrating tube method	967.6 ± 6.5

Settings	refractive index
[2]	1.4849 ± 0.0012
